Data: US20260306490A1, “PIM1 INHIBITOR FOR TREATING MYELOPROLIFERATIVE NEOPLASMS” (Sumitomo Pharma America, Inc., priority 2022, published 2026)
Like-named read-outs stand apart in the source and are kept apart here. One block for each molecule: values may come before it.

Tests used:
[1] = system: hematology parameters (platelet counts); assay: CGLP preclinical dog study, hematology parameters; format: in vivo
[2] = system: PIM1; conditions: cited from earlier work
[3] = system: PIM2; conditions: cited from earlier work
[4] = system: PIM3; conditions: cited from earlier work
[5] = system: human erythroid progenitors (CFU-E, BFU-E); assay: Colony forming cell assay, human erythroid progenitor (CFU-E, BFU-E) proliferation; format: cell-based; conditions: 336 h, single agent, 14 days, CFU-E and BFU-E
Procedure: (§1) Clonogenic progenitors of human erythroid (CFU-E, BFU-E), granulocyte-monocyte (CFU-GM), and multipotential (CFU-GEMM) lineages were assessed in a semi-solid methylcellulose-based media formulation containing rhIL-3 (10 ng/mL), rhGM-SCF (10 ng/mL), rhSCF (50 ng/mL), and Epo (3 U/mL).
(§2) In addition, 5-FU was evaluated at 1.0, 0.1 and 0.01 μg/mL as a positive control for toxicity.
(§3) Normal human bone marrow light density cells (lot #0210901), derived from normal bone marrow, (Lonza, Maryland) and qualified at ReachBio, were stored at −152° C. until required for the assay. On the day of the experiment, the cells were thawed rapidly, diluted in 10 mL of Iscove's modified Dulbecco's medium containing 10% fetal bovine serum (IMDM+10% FBS) and washed by centrifugation (approximately 1500 r.p.m. for 10 minutes at room temperature). The supernatant was discarded and the cell pellets were resuspended in a known volume of IMDM+10% FBS. A cell count (3% glacial acetic acid) and viability assessment (trypan blue exclusion test) was performed for the bone marrow sample.
Clonogenic progenitors of human megakaryocyte (CFU-Mk) were assessed in a collagen-based media formulation containing rhIL-3 (10 ng/mL), rhIL-6 (10 ng/mL), and Tpo (50 ng/mL). Clonogenic progenitors of the human erythroid (CFU-E and BFU-E), myeloid (CFU-GM), and megakaryocyte (CFU-Mk) lineages were set up in the media formulations described above. Individually, the test compounds were added to the medium to give the final desired concentrations (10, 3.33, 1, 0.333, 0.1, 0.0333, 0.01 and 0.00333 μM). […]
Human myeloid and erythroid progenitor assays were initiated at 1.2×10^4 cells per culture (lot #0210921) and the human megakaryocyte assays were initiated at 1.2×10^5 cells per culture (lot #0210921). Following 14 days in culture, erythroid and myeloid colonies were assessed microscopically in situ and scored by trained personnel. […] The colonies were assessed microscopically and scored by trained personnel and divided into the following categories based on size: CFU-Mk (3-20), CFU-Mk (21-49), and CFU-Mk (≥50).
Statistical analysis: The mean±standard deviation of three replicate cultures was calculated for both erythroid and myeloid progenitors. […]
(§4) Erythroid (CFU-E and BFU-E) and myeloid (CFU-GM) colony enumeration was performed by trained personnel. In addition, the distribution of colony types as well as general colony and cellular morphology was analyzed. The variance in colony number detected in replicate cultures was representative of the historical coefficient of variation for colony enumeration using these types of assays. The number and distribution of colonies detected in the solvent control (0.1% DMSO for single agents) was no different from the standard control (containing no compound and no DMSO). […]

[6] = system: human myeloid progenitors (CFU-GM); assay: Colony forming cell assay, human myeloid (granulocyte-monocyte, CFU-GM) progenitor proliferation; format: cell-based; conditions: single agent; for IC50: Homo sapiens, 336 h, 14 days, CFU-GM; for concentrations at which myeloid progenitor proliferation was (significantly, additionally) inhibited: vs 0.1% DMSO solvent control, p<0.01
Procedure: as §1, §2, §3
(§5) Clonogenic progenitors of human megakaryocyte (CFU-Mk) were assessed in a collagen-based media formulation containing rhIL-3 (10 ng/mL), rhIL-6 (10 ng/mL), and Tpo (50 ng/mL). Clonogenic progenitors of the human erythroid (CFU-E and BFU-E), myeloid (CFU-GM), and megakaryocyte (CFU-Mk) lineages were set up in the media formulations described above. Individually, the test compounds were added to the medium to give the final desired concentrations (10, 3.33, 1, 0.333, 0.1, 0.0333, 0.01 and 0.00333 μM). […] Solvent control cultures (containing no compound but 0.1% DMSO) as well as standard controls (containing no compound and no DMSO) were also initiated. Once introduced into the matrices, the tubes were vortexed to ensure an equal distribution throughout.
(§6) Human myeloid and erythroid progenitor assays were initiated at 1.2×10^4 cells per culture (lot #0210921) and the human megakaryocyte assays were initiated at 1.2×10^5 cells per culture (lot #0210921). Following 14 days in culture, erythroid and myeloid colonies were assessed microscopically in situ and scored by trained personnel. The colonies were divided into the following categories based on size and morphology: CFU-E, BFU-E, CFU-GM, and CFU-GEMM. The human megakaryocyte cultures were transferred from the 35 mm dishes to labeled glass slides, fixed with methanol/acetone fixative, and then stained with anti-human CD41 antibody and an alkaline phosphate detection system according to manufacturers' instructions. The colonies were assessed microscopically and scored by trained personnel and divided into the following categories based on size: CFU-Mk (3-20), CFU-Mk (21-49), and CFU-Mk (≥50).
(§7) Statistical analysis: The mean±standard deviation of three replicate cultures was calculated for both erythroid and myeloid progenitors. Two-tailed standard t-tests were performed to assess if there was a difference in the number of colonies generated between solvent control and treated cultures. Due to the potential subjectivity of colony enumeration, a p value of less than 0.01 is deemed significant. To calculate the concentration of 50% inhibition of colony growth (IC50) for each compound, a dose response curve was generated plotting the log of the compound concentration versus the percentage of control colony growth using GraphPad Prism 9 software.
as §4

[7] = system: human megakaryocyte progenitors (CFU-Mk); assay: Colony forming cell assay, human megakaryocyte progenitor (CFU-Mk) proliferation; format: cell-based; conditions: Homo sapiens; single agent; read-out: IC50, total CFU-Mk (megakaryocyte progenitor proliferation)
Procedure: as §2, §3, §5, §6, §7
Other than the test compounds being combined, the only change from the method in Example 1 was a 0.2% DMSO solvent control instead of 0.1% DMSO. The results are provided in FIGS. 2A-4C (FIGS. 2A-2C are human megakaryocytes (CFU-MK), FIGS. 3A-3C are human erythroid (CFU-E, BFU-E), and FIGS. 4A-4C are human granulocyte-monocyte (CFU-GM).

[8] = system: R/R MF; conditions: monotherapy, cited from earlier work
[9] = system: MF patients; conditions: cited from earlier work
[10] = system: R/R MM; conditions: n = 79; cited from earlier work
[11] = system: R/R AML; conditions: R/R AML, n = 32; cited from earlier work
[12] = system: Solid tumor; conditions: n = 35; cited from earlier work
[13] = PERSIST 2, monotherapy 200 mg BID, N = 106
[14] = MOMENTUM, monotherapy 200 mg QD, N = 195

hematology parameters ([1]; 10 mg/kg/day, either sex): not considered to be altered | platelet counts (PLT) increase ([1]; 30 mg/kg/day, females): 12.1% | platelet counts (PLT) increase ([1]; 30 mg/kg/day, males): 16.5% | platelet counts (PLT) increase ([1]; 90 mg/kg/day, females): 26.3% | platelet counts (PLT) increase ([1]; 90 mg/kg/day, males): 20%
Compound: CN1CCC(CNc2ccc3ncc(-c4cccc(OC(F)(F)F)c4)n3n2)CC1 [Compound (2)]
IC50 ([2]; unit inferred, read-out: PIM1 IC50): […] | IC50 ([3]; unit inferred, read-out: PIM2 IC50): 980 nM | IC50 ([4]; unit inferred, read-out: PIM3 IC50): 20 nM

Compound: C1=C/COCc2cc(ccc2OCCN2CCCC2)Nc2nccc(n2)-c2cccc(c2)COC/1 [pacritinib]
IC50 [5]: 280 nM | IC50 [6]: 170 nM | concentrations at which myeloid progenitor proliferation was (significantly, additionally) inhibited [6]: 0.1 µM | IC50 [7]: 340 nM | SVR35 at Week 24 ([8]; <50 × 10^9/L PLT): 29% | TEAE Anemia, All Gr [9, 13]: 24% | TEAE Anemia, ≥3 Gr [9, 13]: 22% | TEAE Neutropenia, ≥3 Gr [9, 13]: 7% | TEAE Thrombocytopenia, All Gr [9, 13]: 34% | TEAE Thrombocytopenia, ≥3 Gr [9, 13]: 32%

Compound: C[C@@H]1C[C@H](N)C[C@H](c2ccncc2NC(=O)c2ccc(F)c(-c3c(F)cccc3F)n2)C1 [PIM447]
Hem AE, G3+ anemia [10]: G3+ anemia (20%), | Hem AE, G3+ neutropenia [10]: (20%) | Hem AE, G3+ thrombocytopenia [10]: (33%) | Non-hem AE, G3+ diarrhea [10]: (6.3%), | Non-hem AE, pneumonia [10]: pneumonia (7.6%)

Compound: N[C@@H]1CCCN(c2c(/C=C3\SC(=O)NC3=O)cccc2-c2ccccc2)C1 [AZD1208]
IC50 ([2]; read-out: Preclinical IC50, PIM1): […] | IC50 ([3]; read-out: Preclinical IC50, PIM2): […] | IC50 ([4]; read-out: Preclinical IC50, PIM3): 1.9 nM | Efficacy, circulating blasts (in several patients) [11]: response, reduction | Hem AE, Febrile neutropenia [11]: (28%) | Non-hem AE, diarrhea [11]: diarrhea (44%), | Non-hem AE, nausea [11]: Nausea (47%) | Non-hem AE, pneumonia [11]: pneumonia (19%) | Non-hem AE, vomiting [11]: vomiting (31%), | Efficacy, stable disease for ≥6 weeks [12]: ≥6 weeks in 13 patients | Hem AE, Anemia [12]: Anemia (51%), | Hem AE, Thrombocytopenia [12]: (14-26%) | Hem AE, WBC decreased [12]: WBC decreased (26%) | Non-hem AE, diarrhea [12]: Diarrhea (83%), | Non-hem AE, nausea [12]: nausea (74%) | Non-hem AE, vomiting [12]: vomiting (54%),

Compound: CC1(C)CCC(c2ccc(Cl)cc2)=C(CN2CCN(c3ccc(C(=O)NS(=O)(=O)c4ccc(N[C@H](CCN5CCOCC5)CSc5ccccc5)c(S(=O)(=O)C(F)(F)F)c4)cc3)CC2)C1 [Navitoclax, navitoclax]
SVR35 at Week 24 ([8]; ≥100 × 10^9/L PLT): 7% | TSS50 at Week 24 ([8]; ≥100 × 10^9/L PLT): 10%

Compound: N#CCNC(=O)c1ccc(-c2ccnc(Nc3ccc(N4CCOCC4)cc3)n2)cc1 [momelotinib]
IC50 [5]: 1600 nM | IC50 [6]: 260 nM | concentrations at which myeloid progenitor proliferation was (significantly, additionally) inhibited [6]: 1.0 µM | IC50 [7]: 300 nM | SVR35 at Week 24 ([8]; ≥25 × 10^9/L PLT): 23% | TSS50 at Week 24 ([8]; ≥25 × 10^9/L PLT): 25% | TEAE Anemia, All Gr [9, 14]: 99% | TEAE Anemia, ≥3 Gr [9, 14]: 61% | TEAE Neutropenia, All Gr [9, 14]: 29% | TEAE Neutropenia, ≥3 Gr [9, 14]: 12% | TEAE Thrombocytopenia, All Gr [9, 14]: 76% | TEAE Thrombocytopenia, ≥3 Gr [9, 14]: 28%
